The values that follow come from patent publication US20100324130A1, “DAA PERIPHERAL BENZODIAZEPINE RECEPTOR LIGAND FOR CANCER IMAGING AND TREATMENT” (priority 2006, published 2010).

By IC50 is commonly meant the point on the concentration scale where inhibition reaches its midpoint. Usually Ki stands for the dissociation constant of the complex between target and ligand, obtained from inhibition or displacement.

Each structure is given as a SMILES string.

Series [1] concerns the target T1, PBR protein harvested from MA-10 cells (Mus musculus, UniProt P50637).
T1 construct: PBR protein was harvested from MA-10 cells and stocked in PBS at 10 mg/mL; endogenous in cells; host or cells: MA-10 cells
In words: Competitive binding study against [3H]PK11195 on PBR protein. The note with it: amino group capped by acetyl group; [3H]PK11195 radioligand; 4° C., 90 minutes. The method, then: More specifically, conjugable form of DAA1106, with 3-9 carbon spacers, has been synthesized, characterized, and used in a competitive binding assay. The amino group was capped by acetyl group to reduce non-specific binding (Scheme 2).
PBR protein was harvested from MA-10 cells and stocked in PBS at 10 mg/mL. The stock solution was diluted to 30 μg/100 μL for the binding study. [^3H]PK11195 was used as radioligand and the specific activity of the stock solution was 73.6 Ci/mmole (˜11.8 μM). A diluted solution of 15 nM in PBS was prepared before use. For each of the molecules tested (NIRDAA, LissDAA and C3-9DAA1106 amide), eight concentrations of solutions from 3×10^−4M to 3×10^−11M in PBS buffer were prepared. 30 test tubes were used for the study of each molecule. 3 of them were used for total binding (100 μL 15 nM [^3H]PK11195+100 μL PBS buffer+100 μL 30 μg/100 μL PBR protein), 3 test tubes were for non-specific binding (100 μL 15 nM [^3H]PK11195+100 μL 15 μM PK11195+100 μL 30 μg/100 μL PBR protein) and the other 24 were triplicates for each doses of competitor ligand (100 μL, 15 nM [^3H]PK11195+100 μL competitor solution+100 μL 30 μg/100 μL PBR protein). All test tubes were vortexed and then incubated at 4° C. for 90 minutes. Reactions were stopped by filtration on FG/B filters using the Brandel binding apparatus through Whatman GF/B filters (Brandel, Gaithersburg, Md.). The filters (24 positions each) were preincubated in PBS/H2O containing 0.05% PEI for 20-30 minutes before filtration. The filters were then washed 5 times with PBS, put in scintillation vials, vortexed in scintillation fluid and counted. The […] and Ki (equilibrium dissociation constant) values were calculated using the PRISM program package

In series [2] the test system is PBR. The settings on record: cited from earlier work.
Series [3] concerns PBR. The note with it: cited from earlier work; for IC50: comparison values for parent ligand.
Series [4] relates to human Jurkat T lymphocyte cells (low PBR expressing). The series is described as follows: Apoptosis study, CellTiter-Glo luminescent cell viability assay. It is filed as cell-based. The method, then: (§1) Apoptosis Study Using Etoposide and EtoposideDAA 50,000 MDA-MB-231 human breast tumor (high PBR expressing) or human Jurkat T lymphocyte cells (low PBR expressing) cells/well were added to 96 well plates and incubated under standard tissue culture conditions (37° C., 5% CO2) for 24 hours. […] After three days, CellTiter-Glo luminescent cell viability assay (Promega) was added. The plates were incubated for an additional one hour and the […] was counted under Xenogen IVIS imaging system. Three wells were used for control which had cells treated with viability assay without drug. Blank […] not have cells or drug, but had viability assay. Medium samples had cells only, without drug or viability assay.
A general note: In ATP-based viability assays light output follows the ATP content of the culture.

In series [5] the test system is MDA-MB-231 human breast tumor (high PBR expressing) cells. The series is described as above. The settings on record: MDA-MB-231, three days. It is filed as cell-based. The method, then:
as §1

In series [1], `COc1ccc(NCCCNC(C)=O)c(CN(C(C)=O)c2cc(F)ccc2Oc2ccccc2)c1` [C3DAA1106] returned an IC50 of 390 nM and a Ki of 68 ± 23 nM.
In series [1], `COc1ccc(NCCCCNC(C)=O)c(CN(C(C)=O)c2cc(F)ccc2Oc2ccccc2)c1` [C4DAA1106] yielded an IC50 of 800 nM and a Ki of 141 ± 36 nM.
The like results for `COc1ccc(NCCCCCNC(C)=O)c(CN(C(C)=O)c2cc(F)ccc2Oc2ccccc2)c1` [C5DAA1106] were, in that order, 840 nM and 149 ± 49 nM.
On to `COc1ccc(NCCCCCCNC(C)=O)c(CN(C(C)=O)c2cc(F)ccc2Oc2ccccc2)c1` [C6DAA1106], for which, in series [1], the half-maximal inhibitory concentration (IC50) turned out to be 350 ± 220 nM and the inhibitory constant (Ki) is 52 ± 30 nM.
For `COc1ccc(NCCCCCCCNC(C)=O)c(CN(C(C)=O)c2cc(F)ccc2Oc2ccccc2)c1` [C7DAA1106] the same measures were 400 nM and 71 ± 33 nM.
In series [1], `COc1ccc(NCCCCCCCCNC(C)=O)c(CN(C(C)=O)c2cc(F)ccc2Oc2ccccc2)c1` [C8DAA1106] came in with a 50% inhibitory concentration (IC50) of 240 nM and a Ki of 43 ± 19 nM.
In series [1], `COc1ccc(NCCCCCCCCCNC(C)=O)c(CN(C(C)=O)c2cc(F)ccc2Oc2ccccc2)c1` [C9DAA1106] yielded an IC50 of 290 nM and an inhibition constant Ki of 51 ± 17 nM.
On to `COc1ccc(OC)c(CN(C(C)=O)c2cc(F)ccc2Oc2ccccc2)c1` [DAA1106], for which the “concentration to displace PBR complexed PK11195 and Ro5-4864” value in series [2] is 10^−15-10^−12 M. The half-inhibitory concentration (IC50) in series [3] is 0.28 nM. In series [3] (fentomolar), the “binding affinity for PBR” value is listed as 10^−15 M.
As for `COc1ccc(OC)c(CN(C(C)=O)c2cc(F)ccc2Oc2ccccc2)c1` [[^11C]DAA1106], in series [3], the IC50 is 0.91 nM.
As to `COc1cc([C@@H]2c3cc4c(cc3[C@@H](O[C@@H]3O[C@@H]5CO[C@@H](C)O[C@H]5[C@H](O)[C@H]3O)[C@H]3COC(=O)[C@H]23)OCO4)cc(OC)c1O` [etoposide, reference compound], in series [4] (Jurkat, three days), the “concentration at which cells began to respond” value is reported as 10^−6 M and the “concentration at which cells effectively respond” value is 10^−5 M. The “concentration at which cells were beginning to respond” value in series [5] is listed as 10^−4 M.
On to `COc1ccc(NCCCCCCNC(=O)CCOc2c(OC)cc([C@@H]3c4cc5c(cc4[C@@H](OC4OC6COC(C)OC6C(O)C4O)[C@H]4COC(=O)[C@H]34)OCO5)cc2OC)c(CN(C(C)=O)c2cc(F)ccc2Oc2ccccc2)c1` (stereo partly drawn) [etoposide-C6DAA1106], for which the “toxicity to normal cells compared with etoposide” value in series [4] (Jurkat (low PBR expressing)) is on record as “less toxicity to normal cells than etoposide”. Also, the “concentration at which cells effectively respond” value in series [4] (Jurkat, three days) is on record as 10^−4 M. In series [5], the “concentration at which cells were beginning to respond” value is 10^−4 M.
